Source: the NIST ThermoML archive (doi:10.1021/acs.jced.7b00372)
“And” between values parts separate entries of the source, which are not always exact repeats. Identical values can stand only once. ± gives the expanded uncertainty stated by the source.

Key:
[1] = Liquid, Ebulliometric method (Recirculating still)
[2] = refractive index (Na D-line) (dimensionless); settings: 93 kPa, Liquid, Standard Abbe refractometry
[3] = refractive index (Na D-line) (dimensionless); xn = mol fraction of the nth substance listed; settings: 293.15 K, 93 kPa, Liquid, Standard Abbe refractometry

## Cc1ccccc1C [1,2-dimethylbenzene]
[1]; 414.41 K
  vapor or sublimation pressure: 93.13 ± 0.96 kPa
[2]; 293.15 K
  refractive index: 1.5048 ± 0.0004
[2]; 298.15 K
  refractive index: 1.5022 ± 0.0004

## Cc1ccccc1C [1,2-dimethylbenzene] + COC(=O)OC
[3]; x1 = 0.045
  refractive index: 1.377 ± 0.0005
[3]; x1 = 0.1564
  refractive index: 1.3961 ± 0.0005
[3]; x1 = 0.1622
  refractive index: 1.3969 ± 0.0005
[3]; x1 = 0.2752
  refractive index: 1.4149 ± 0.0005
[3]; x1 = 0.36
  refractive index: 1.4272 ± 0.0005
[3]; x1 = 0.4516
  refractive index: 1.4397 ± 0.0005
[3]; x1 = 0.5655
  refractive index: 1.4556 ± 0.0005
[3]; x1 = 0.603
  refractive index: 1.4601 ± 0.0005
[3]; x1 = 0.7134
  refractive index: 1.4734 ± 0.0005
[3]; x1 = 0.7602
  refractive index: 1.4795 ± 0.0005
[3]; x1 = 0.8813
  refractive index: 1.493 ± 0.0005
[3]; x1 = 0.9276
  refractive index: 1.4973 ± 0.0005
[3]; x1 = 1
  refractive index: 1.5048 ± 0.0004

## Cc1cccc(C)c1 [1,3-dimethylbenzene]
[1]; 409.13 K
  vapor or sublimation pressure: 93.13 ± 0.96 kPa
[2]; 293.15 K
  refractive index: 1.497 ± 0.0004
[2]; 298.15 K
  refractive index: 1.4943 ± 0.0004

## Cc1cccc(C)c1 [1,3-dimethylbenzene] + COC(=O)OC
[3]; x1 = 0.0467
  refractive index: 1.3769 ± 0.0005
[3]; x1 = 0.0871
  refractive index: 1.3836 ± 0.0005
[3]; x1 = 0.1737
  refractive index: 1.3973 ± 0.0005
[3]; x1 = 0.2042
  refractive index: 1.4021 ± 0.0005
[3]; x1 = 0.2593
  refractive index: 1.4101 ± 0.0005
[3]; x1 = 0.3033
  refractive index: 1.4167 ± 0.0005
[3]; x1 = 0.3719
  refractive index: 1.4262 ± 0.0005
[3]; x1 = 0.4455
  refractive index: 1.4359 ± 0.0005
[3]; x1 = 0.4709
  refractive index: 1.439 ± 0.0005
[3]; x1 = 0.5421
  refractive index: 1.4481 ± 0.0005
[3]; x1 = 0.6549
  refractive index: 1.4612 ± 0.0005
[3]; x1 = 0.7672
  refractive index: 1.4738 ± 0.0005
[3]; x1 = 0.8662
  refractive index: 1.4839 ± 0.0005
[3]; x1 = 0.94
  refractive index: 1.4913 ± 0.0005
[3]; x1 = 1
  refractive index: 1.497 ± 0.0004

## Cc1ccc(C)cc1 [1,4-dimethylbenzene]
[1]; 408.37 K
  vapor or sublimation pressure: 93.13 ± 0.96 kPa
[2]; 293.15 K
  refractive index: 1.4956 ± 0.0004
[2]; 298.15 K
  refractive index: 1.4929 ± 0.0004

## Cc1ccc(C)cc1 [1,4-dimethylbenzene] + COC(=O)OC
[3]; x1 = 0.0368
  refractive index: 1.3752 ± 0.0005
[3]; x1 = 0.0866
  refractive index: 1.3835 ± 0.0005
[3]; x1 = 0.157
  refractive index: 1.3946 ± 0.0005
[3]; x1 = 0.2639
  refractive index: 1.4106 ± 0.0005
[3]; x1 = 0.3598
  refractive index: 1.4241 ± 0.0005
[3]; x1 = 0.4244
  refractive index: 1.4326 ± 0.0005
[3]; x1 = 0.5293
  refractive index: 1.4457 ± 0.0005
[3]; x1 = 0.6397
  refractive index: 1.4586 ± 0.0005
[3]; x1 = 0.7655
  refractive index: 1.4724 ± 0.0005
[3]; x1 = 0.8832
  refractive index: 1.4848 ± 0.0005
[3]; x1 = 0.938
  refractive index: 1.4898 ± 0.0005
[3]; x1 = 1
  refractive index: 1.4956 ± 0.0004

## COC(=O)OC [dimethyl carbonate]
[1]; 360.73 K
  vapor or sublimation pressure: 93.13 ± 0.96 kPa
[2]; 293.15 K
  refractive index: 1.3687 ± 0.0004 and 1.3688 ± 0.0004
[2]; 298.15 K
  refractive index: 1.3664 ± 0.0004

## COC(=O)OC [dimethyl carbonate] + CCc1ccccc1
[3]; x2 = 0
  refractive index: 1.3688 ± 0.0004

## COC(=O)OC [dimethyl carbonate] + Cc1ccc(C)cc1
[3]; x2 = 0
  refractive index: 1.3687 ± 0.0004

## COC(=O)OC [dimethyl carbonate] + Cc1cccc(C)c1
[3]; x2 = 0
  refractive index: 1.3688 ± 0.0004

## COC(=O)OC [dimethyl carbonate] + Cc1ccccc1C
[3]; x2 = 0
  refractive index: 1.3688 ± 0.0004

## CCc1ccccc1 [ethylbenzene]
[1]; 406.23 K
  vapor or sublimation pressure: 93.13 ± 0.96 kPa
[2]; 293.15 K
  refractive index: 1.4956 ± 0.0004
[2]; 298.15 K
  refractive index: 1.493 ± 0.0004

## CCc1ccccc1 [ethylbenzene] + COC(=O)OC
[3]; x1 = 0.0462
  refractive index: 1.3767 ± 0.0005
[3]; x1 = 0.089
  refractive index: 1.3836 ± 0.0005
[3]; x1 = 0.1753
  refractive index: 1.397 ± 0.0005
[3]; x1 = 0.2701
  refractive index: 1.4109 ± 0.0005
[3]; x1 = 0.3564
  refractive index: 1.4232 ± 0.0005
[3]; x1 = 0.4359
  refractive index: 1.4335 ± 0.0006
[3]; x1 = 0.4448
  refractive index: 1.4352 ± 0.0005
[3]; x1 = 0.468
  refractive index: 1.4382 ± 0.0005
[3]; x1 = 0.5157
  refractive index: 1.4441 ± 0.0005
[3]; x1 = 0.5825
  refractive index: 1.4527 ± 0.0005
[3]; x1 = 0.6639
  refractive index: 1.4617 ± 0.0005
[3]; x1 = 0.7377
  refractive index: 1.4702 ± 0.0005
[3]; x1 = 0.852
  refractive index: 1.4815 ± 0.0005
[3]; x1 = 0.8827
  refractive index: 1.4847 ± 0.0005
[3]; x1 = 0.9124
  refractive index: 1.4873 ± 0.0005
[3]; x1 = 0.9395
  refractive index: 1.49 ± 0.0005
[3]; x1 = 1
  refractive index: 1.4956 ± 0.0004
